“And” between values parts separate entries of the source, which are not always exact repeats. Equal entries are not always repeated.
How the values were obtained:
[1] = target: T1, hSGLT2 D201A (Homo sapiens, UniProt P31639, D201A); test: SGLT2 inhibitor-binding assay (AS-MS), crude membrane, D201A mutant; design: expressed in transfected cells; host or cells: Expi293 cells, crude membrane fraction; conditions: 30 nM canagliflozin; D201A; replicates
T1 sequence (P31639 1-672 D201A): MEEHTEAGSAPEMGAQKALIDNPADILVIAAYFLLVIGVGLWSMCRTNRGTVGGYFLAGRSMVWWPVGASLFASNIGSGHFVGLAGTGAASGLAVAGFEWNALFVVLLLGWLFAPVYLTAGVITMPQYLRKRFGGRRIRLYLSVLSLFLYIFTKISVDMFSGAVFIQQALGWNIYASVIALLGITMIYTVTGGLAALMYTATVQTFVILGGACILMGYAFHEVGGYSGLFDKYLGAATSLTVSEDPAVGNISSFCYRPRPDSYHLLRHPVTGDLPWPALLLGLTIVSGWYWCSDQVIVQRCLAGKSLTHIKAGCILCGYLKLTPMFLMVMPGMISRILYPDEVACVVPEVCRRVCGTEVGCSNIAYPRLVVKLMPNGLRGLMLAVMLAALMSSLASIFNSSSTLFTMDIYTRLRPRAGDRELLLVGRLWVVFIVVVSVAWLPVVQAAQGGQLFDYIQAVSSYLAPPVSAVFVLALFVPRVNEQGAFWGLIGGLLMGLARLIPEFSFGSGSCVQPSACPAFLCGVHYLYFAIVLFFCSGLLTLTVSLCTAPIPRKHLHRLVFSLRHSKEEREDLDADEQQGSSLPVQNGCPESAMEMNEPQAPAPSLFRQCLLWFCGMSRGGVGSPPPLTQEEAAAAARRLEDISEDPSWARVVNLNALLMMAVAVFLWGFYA
T1 sequence (Q13113 1-114 partner): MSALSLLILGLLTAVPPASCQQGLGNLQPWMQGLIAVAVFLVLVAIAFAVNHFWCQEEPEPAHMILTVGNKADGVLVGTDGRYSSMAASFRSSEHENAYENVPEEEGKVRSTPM
From the text: (§1) hSGLT2 complementary DNA and human MAP17 cDNA were synthesized and codon-optimized for expression in human cell lines. Both cDNAs were cloned into the pcDNA3.4 vector. The hSGLT2 sequence was fused with an N-terminal signal sequence from human trypsinogen 1, a His10 tag, and sfGFP, followed by a human rhinovirus 3C protease (HRV3C protease) recognition site. Point mutations were introduced into this construct using site-directed mutagenesis. These plasmids were utilized for all experimental procedures conducted in this study.
To examine the inhibition of binding to the crude membrane, mammalian Expi293 cells were co-transfected with the hMAP17 and hSGLT2 plasmids, as described. […] The extract solution from the filter plate was diluted with water containing candesartan as an internal standard, and the SGLT2 inhibitor concentration was quantified via LC–MS/MS.
Nonspecific binding was measured using the crude membrane of nontransfected Expi293 cells. Specific binding was calculated by subtracting nonspecific binding from the binding of hSGLT2-expressing cells. Specific binding was normalized to hSGLT2 protein expression levels, measured via FSEC. The equilibrium dissociation constant (Kd) and maximum number of binding sites (Bmax) were calculated via nonlinear regression in GraphPad Prism 8.4.3. […]

[2] = target: T2, hSGLT2 S74A (Homo sapiens, UniProt P31639, S74A); test: cell-based
T2 construct: expressed in transfected cells; host or cells: Expi293 cells, crude membrane fraction
T2 sequence (P31639 whole entry S74A, one chain of several): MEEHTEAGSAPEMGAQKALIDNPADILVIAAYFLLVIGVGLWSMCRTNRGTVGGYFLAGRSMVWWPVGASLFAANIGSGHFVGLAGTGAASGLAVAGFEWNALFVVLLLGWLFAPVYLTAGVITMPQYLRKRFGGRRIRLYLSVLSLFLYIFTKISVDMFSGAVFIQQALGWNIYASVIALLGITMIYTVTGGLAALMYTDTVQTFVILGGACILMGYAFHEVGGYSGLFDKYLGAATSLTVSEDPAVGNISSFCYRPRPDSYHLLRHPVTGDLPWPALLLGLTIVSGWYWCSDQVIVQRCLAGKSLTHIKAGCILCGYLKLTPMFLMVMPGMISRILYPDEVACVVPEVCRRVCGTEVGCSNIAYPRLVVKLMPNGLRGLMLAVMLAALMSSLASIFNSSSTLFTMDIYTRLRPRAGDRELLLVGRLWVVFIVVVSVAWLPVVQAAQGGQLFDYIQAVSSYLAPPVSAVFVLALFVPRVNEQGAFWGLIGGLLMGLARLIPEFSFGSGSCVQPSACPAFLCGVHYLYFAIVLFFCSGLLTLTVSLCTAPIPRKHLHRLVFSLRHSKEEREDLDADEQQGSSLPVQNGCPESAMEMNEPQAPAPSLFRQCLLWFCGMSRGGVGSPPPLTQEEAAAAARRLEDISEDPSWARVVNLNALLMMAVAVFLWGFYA
From the text: as §1
HEK293 cells (ECACC 85120602) were maintained in Dulbecco’s modified Eagle medium (Gibco) supplemented with 10% fetal bovine serum (Thermo Scientific), 2 mM L-glutamine, 100 U ml^−1 benzylpenicillin and 100 µg ml^−1 streptomycin at 37 °C in a humidified atmosphere (5% CO2 in air). HEK293 cells were seeded at 1.0 × 10^5 cells per well in poly-L-lysine coated 24-well plates. […]
Cell lysates were deproteinized by adding acetonitrile containing candesartan as the internal standard. The α-MG concentration was quantified via liquid chromatography–tandem mass spectrometry (LC–MS/MS) using the internal standard method.
Cellular protein content was determined using a bicinchoninic acid protein assay kit (Thermo Fisher Scientific). The uptake of α-MG was expressed as the ratio of concentration in the cells (in pmol per mg protein) to concentration in the medium (in pmol μl^−1); this is known as the cell-to-medium ratio (in μl per mg protein).
In the inhibition study, the cell-to-medium ratio of cells transfected with the empty vector was used as the background. The specific α-MG uptake was calculated by subtracting this background from the total cell-to-medium ratio and normalized to the uptake achieved without the inhibitor. IC50 was calculated via nonlinear regression using GraphPad Prism 8.4.3.
The concentrations of the extract solution from the filter plate and of the cell lysate were quantified using a tandem mass spectrometry QTRAP6500 System (SCIEX) coupled with an ACQUITY UPLC system (Waters) using the internal standard method. […]

Row | SMILES | Canagliflozin binding (% of WT) [1] | remaining activity at 0.003 µM ([2]; HEK293, read-out: α-MG uptake (% of control), Phlorizin 3 nM) [%] | remaining activity at 0.03 µM ([2]; HEK293, read-out: α-MG uptake (% of control), Phlorizin 30 nM) [%] | remaining activity at 0.1 µM ([2]; HEK293, read-out: α-MG uptake (% of control), Phlorizin 100 nM) [%]
1 | Cc1ccc([C@@H]2O[C@H](CO)[C@@H](O)[C@H](O)[C@H]2O)cc1Cc1ccc(-c2ccc(F)cc2)s1 [Canagliflozin] | 127.94 % of WT and 124.539 % of WT and 148.349 % of WT | – | – | –
2 | O=C(CCc1ccc(O)cc1)c1c(O)cc(O)cc1O[C@@H]1O[C@H](CO)[C@@H](O)[C@H](O)[C@H]1O [Phlorizin] | – | 95.3 | 80.6 | 70.1

— publication PMC10803289, “Transport and inhibition mechanism of the human SGLT2–MAP17 glucose transporter” (Nature Structural & Molecular Biology, 2023)
